Reference: BindingDB's records for doi:10.1124/jpet.102.047092 (Case Western Reserve University, 2003)
Several values for one entry are separate records, joined by “and”; a condition that tells them apart may be missing. Equal entries are not always repeated.

Legend:
[1] = biological target: T1, Alpha-1A adrenergic receptor (Homo sapiens, UniProt P35348)
T1 sequence (P35348 whole entry): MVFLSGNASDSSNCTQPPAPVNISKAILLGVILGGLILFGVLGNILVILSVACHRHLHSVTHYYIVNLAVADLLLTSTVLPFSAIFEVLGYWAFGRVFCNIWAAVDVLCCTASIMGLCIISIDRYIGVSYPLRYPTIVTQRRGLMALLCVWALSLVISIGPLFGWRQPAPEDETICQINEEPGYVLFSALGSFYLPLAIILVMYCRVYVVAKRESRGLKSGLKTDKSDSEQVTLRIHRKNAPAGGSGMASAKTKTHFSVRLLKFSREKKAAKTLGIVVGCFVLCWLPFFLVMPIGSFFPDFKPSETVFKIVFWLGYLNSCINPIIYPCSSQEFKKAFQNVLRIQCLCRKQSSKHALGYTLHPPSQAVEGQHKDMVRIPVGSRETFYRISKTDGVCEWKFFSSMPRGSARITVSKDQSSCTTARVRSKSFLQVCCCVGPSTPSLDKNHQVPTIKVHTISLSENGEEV

[2] = biological target: Kappa-type opioid receptor (Cavia porcellus, UniProt P41144)
[3] = biological target: Glutamate receptor ionotropic, NMDA 1 (Rattus norvegicus, UniProt P35439)
[4] = biological target: T2, 5-hydroxytryptamine receptor 3A (Homo sapiens, UniProt P46098)
T2 sequence (P46098 whole entry): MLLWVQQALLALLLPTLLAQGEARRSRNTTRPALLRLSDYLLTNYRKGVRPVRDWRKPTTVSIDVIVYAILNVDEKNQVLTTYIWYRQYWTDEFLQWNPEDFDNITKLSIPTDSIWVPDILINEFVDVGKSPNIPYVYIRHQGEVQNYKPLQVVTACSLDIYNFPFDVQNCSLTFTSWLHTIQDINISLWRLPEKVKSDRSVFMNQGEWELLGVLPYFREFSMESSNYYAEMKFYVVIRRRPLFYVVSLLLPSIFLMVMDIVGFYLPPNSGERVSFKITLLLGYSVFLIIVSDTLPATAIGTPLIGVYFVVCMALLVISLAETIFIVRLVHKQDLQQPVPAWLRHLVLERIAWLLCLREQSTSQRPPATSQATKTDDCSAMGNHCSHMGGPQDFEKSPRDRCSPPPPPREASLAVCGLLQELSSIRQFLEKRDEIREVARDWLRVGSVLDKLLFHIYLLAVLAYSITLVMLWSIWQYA

[5] = biological target: Beta-2 adrenergic receptor (Rattus norvegicus, UniProt P10608)
[6] = biological target: T3, 5-hydroxytryptamine receptor 2C (Rattus norvegicus, UniProt P08909)
T3 sequence (P08909 whole entry): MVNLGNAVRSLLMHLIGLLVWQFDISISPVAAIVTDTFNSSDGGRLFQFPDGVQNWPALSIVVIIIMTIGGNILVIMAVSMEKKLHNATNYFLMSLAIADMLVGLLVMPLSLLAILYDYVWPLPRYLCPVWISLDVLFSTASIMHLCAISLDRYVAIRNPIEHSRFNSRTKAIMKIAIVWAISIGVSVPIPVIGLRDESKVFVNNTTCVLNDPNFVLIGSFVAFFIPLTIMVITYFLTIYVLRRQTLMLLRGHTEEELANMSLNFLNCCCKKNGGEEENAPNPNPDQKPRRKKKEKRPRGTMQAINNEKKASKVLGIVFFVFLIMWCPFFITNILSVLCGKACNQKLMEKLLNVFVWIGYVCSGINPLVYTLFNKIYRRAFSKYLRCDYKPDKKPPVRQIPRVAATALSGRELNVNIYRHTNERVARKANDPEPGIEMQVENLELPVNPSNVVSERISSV

[7] = biological target: 5-hydroxytryptamine receptor 7 (Homo sapiens, UniProt P34969)
[8] = biological target: 5-hydroxytryptamine receptor 5A (Homo sapiens, UniProt P47898)
[9] = biological target: Gamma-aminobutyric acid receptor subunit alpha-1 (Rattus norvegicus, UniProt P62813)
[10] = biological target: T4, Alpha-2A adrenergic receptor (Homo sapiens, UniProt P08913)
T4 sequence (P08913 whole entry): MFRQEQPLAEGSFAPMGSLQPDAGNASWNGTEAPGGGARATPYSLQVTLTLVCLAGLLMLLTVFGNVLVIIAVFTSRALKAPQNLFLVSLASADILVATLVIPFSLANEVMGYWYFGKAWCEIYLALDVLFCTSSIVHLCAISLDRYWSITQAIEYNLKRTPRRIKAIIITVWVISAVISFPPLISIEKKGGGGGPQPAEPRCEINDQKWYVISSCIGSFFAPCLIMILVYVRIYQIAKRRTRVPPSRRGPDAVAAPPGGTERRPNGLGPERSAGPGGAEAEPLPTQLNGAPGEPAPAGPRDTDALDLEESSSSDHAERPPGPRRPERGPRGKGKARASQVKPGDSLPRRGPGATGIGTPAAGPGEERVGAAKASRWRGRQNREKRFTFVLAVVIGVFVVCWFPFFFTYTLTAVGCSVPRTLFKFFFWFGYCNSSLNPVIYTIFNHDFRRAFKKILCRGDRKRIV

[11] = biological target: Sodium-dependent dopamine transporter (Homo sapiens, UniProt Q01959)
Sodium-dependent dopamine transporter, sequence (Q01959 whole entry): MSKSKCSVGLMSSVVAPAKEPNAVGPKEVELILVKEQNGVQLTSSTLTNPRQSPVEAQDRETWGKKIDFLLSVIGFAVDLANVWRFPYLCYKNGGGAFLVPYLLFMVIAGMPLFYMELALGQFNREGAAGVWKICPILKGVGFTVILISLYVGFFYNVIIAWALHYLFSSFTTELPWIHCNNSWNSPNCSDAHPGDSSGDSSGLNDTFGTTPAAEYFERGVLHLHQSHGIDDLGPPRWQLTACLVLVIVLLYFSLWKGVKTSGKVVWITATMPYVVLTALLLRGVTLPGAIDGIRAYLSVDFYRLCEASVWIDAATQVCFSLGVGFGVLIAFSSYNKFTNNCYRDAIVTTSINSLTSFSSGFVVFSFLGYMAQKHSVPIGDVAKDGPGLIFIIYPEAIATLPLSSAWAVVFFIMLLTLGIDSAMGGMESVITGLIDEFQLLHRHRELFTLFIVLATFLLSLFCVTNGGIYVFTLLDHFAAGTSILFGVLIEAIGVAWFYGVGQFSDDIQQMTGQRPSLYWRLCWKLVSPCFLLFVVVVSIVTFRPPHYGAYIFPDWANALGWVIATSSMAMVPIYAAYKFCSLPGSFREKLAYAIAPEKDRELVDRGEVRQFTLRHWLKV

5-hydroxytryptamine receptor 7, sequence (P34969 whole entry): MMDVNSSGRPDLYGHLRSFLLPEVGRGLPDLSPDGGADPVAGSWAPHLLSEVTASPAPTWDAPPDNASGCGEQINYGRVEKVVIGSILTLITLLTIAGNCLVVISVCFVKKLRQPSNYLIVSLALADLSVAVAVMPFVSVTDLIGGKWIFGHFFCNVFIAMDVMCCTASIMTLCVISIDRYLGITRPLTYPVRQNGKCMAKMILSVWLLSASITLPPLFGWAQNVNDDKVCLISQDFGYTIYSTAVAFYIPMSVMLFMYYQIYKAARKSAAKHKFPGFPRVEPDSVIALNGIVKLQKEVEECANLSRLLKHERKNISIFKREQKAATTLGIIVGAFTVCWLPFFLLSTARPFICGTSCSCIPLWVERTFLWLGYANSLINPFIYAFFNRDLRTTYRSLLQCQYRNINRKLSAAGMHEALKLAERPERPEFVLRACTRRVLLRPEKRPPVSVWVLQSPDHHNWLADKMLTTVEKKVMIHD
Kappa-type opioid receptor, sequence (P41144 whole entry): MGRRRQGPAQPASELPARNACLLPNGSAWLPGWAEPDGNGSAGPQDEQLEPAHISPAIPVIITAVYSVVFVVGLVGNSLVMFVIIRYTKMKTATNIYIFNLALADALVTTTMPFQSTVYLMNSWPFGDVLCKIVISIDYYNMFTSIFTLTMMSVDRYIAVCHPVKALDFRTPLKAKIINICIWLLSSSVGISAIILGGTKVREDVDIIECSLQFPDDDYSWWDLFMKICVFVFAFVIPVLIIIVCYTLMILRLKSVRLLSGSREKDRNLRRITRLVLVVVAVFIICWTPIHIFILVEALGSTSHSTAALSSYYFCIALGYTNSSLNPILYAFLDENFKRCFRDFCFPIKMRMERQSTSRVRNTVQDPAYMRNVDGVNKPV
Beta-2 adrenergic receptor, sequence (P10608 whole entry): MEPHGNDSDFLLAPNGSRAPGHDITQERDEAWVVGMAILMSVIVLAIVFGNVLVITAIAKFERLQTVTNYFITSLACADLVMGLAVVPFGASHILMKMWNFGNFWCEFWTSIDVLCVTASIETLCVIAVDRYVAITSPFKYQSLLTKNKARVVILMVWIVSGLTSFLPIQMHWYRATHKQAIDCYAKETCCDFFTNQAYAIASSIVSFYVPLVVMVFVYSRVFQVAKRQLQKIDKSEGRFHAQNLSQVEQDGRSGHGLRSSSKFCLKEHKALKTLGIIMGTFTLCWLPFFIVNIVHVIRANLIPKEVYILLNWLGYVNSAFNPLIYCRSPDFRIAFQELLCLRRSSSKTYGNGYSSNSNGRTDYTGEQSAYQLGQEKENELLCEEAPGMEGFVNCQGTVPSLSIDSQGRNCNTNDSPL
Gamma-aminobutyric acid receptor subunit alpha-1, sequence (P62813 whole entry): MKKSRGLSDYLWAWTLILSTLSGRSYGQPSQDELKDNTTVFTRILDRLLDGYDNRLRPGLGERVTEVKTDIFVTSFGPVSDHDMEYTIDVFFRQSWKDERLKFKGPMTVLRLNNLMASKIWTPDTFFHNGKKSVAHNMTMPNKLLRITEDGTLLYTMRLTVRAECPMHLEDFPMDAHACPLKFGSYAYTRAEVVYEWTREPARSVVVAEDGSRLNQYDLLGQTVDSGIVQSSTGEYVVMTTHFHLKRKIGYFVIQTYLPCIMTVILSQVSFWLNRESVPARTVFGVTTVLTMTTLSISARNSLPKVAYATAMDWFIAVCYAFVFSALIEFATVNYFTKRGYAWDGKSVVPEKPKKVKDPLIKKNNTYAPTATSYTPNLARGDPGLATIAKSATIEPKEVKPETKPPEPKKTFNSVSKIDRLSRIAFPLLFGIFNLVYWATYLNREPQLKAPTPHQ
5-hydroxytryptamine receptor 5A, sequence (P47898 whole entry): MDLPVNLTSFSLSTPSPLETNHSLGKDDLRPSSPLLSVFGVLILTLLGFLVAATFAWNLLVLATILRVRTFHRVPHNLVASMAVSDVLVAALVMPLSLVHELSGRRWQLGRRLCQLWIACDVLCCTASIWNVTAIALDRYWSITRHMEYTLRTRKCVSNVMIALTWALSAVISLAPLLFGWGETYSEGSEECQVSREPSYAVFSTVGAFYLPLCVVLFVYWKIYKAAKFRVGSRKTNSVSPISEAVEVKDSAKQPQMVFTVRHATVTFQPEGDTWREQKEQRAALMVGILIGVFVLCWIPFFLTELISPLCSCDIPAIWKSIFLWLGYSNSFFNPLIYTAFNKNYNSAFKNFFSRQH

Row | Ki [1] | Ki [2] | Ki [3] | Ki [4] | Ki [5] | Ki [6] | Ki [7] | Ki [8] | Ki [9] | Ki [10] | Ki [11] | Structure (SMILES)
1 | > 10 µM | > 10 µM | > 10 µM | > 10 µM | > 10 µM | > 10 µM | > 10 µM | > 10 µM | > 10 µM | > 10 µM | > 10 µM | N[C@@H](CCS)C(=O)O (racemic) [CAS_778]
2 | > 10 µM | > 10 µM | > 10 µM | > 10 µM | > 10 µM | > 10 µM | > 10 µM | > 10 µM | > 10 µM | > 10 µM | > 10 µM | NC(CS(=O)O)C(=O)O (configuration not stated) [CAS_109]
3 | > 10 µM | > 10 µM | > 10 µM and 3.24 µM | > 10 µM | > 10 µM | > 10 µM | > 10 µM | > 10 µM | > 10 µM | > 10 µM | > 10 µM | NC(CSSCC(N)C(=O)O)C(=O)O (configuration not stated) [CAS_595]
4 | > 10 µM | > 10 µM | > 10 µM | > 10 µM | > 10 µM | > 10 µM | > 10 µM | > 10 µM | > 10 µM | > 10 µM | > 10 µM | N[C@@H](CS)C(=O)O [CAS_5862]
5 | > 10 µM | > 10 µM | > 10 µM | > 10 µM | > 10 µM | > 10 µM | > 10 µM | > 10 µM | > 10 µM | > 10 µM | > 10 µM | CSCC[C@@H](N)C(=O)O [CAS_6137]
6 | > 10 µM | > 10 µM | > 10 µM | > 10 µM | > 10 µM | > 10 µM | > 10 µM | > 10 µM | > 10 µM | > 10 µM | > 10 µM | N[C@H](CCS(=O)(=O)O)C(=O)O [D-homocysteic acid]
7 | > 10 µM | > 10 µM | > 10 µM | > 10 µM | > 10 µM | > 10 µM | > 10 µM | > 10 µM | > 10 µM | > 10 µM | > 10 µM | N[C@H](CCS(=O)O)C(=O)O [D-homocysteine sulfinic acid]
8 | > 10 µM | > 10 µM | > 10 µM | > 10 µM | > 10 µM | > 10 µM | > 10 µM | > 10 µM | > 10 µM | > 10 µM | > 10 µM | N[C@H](CS(=O)(=O)O)C(=O)O [L-cysteic acid]

Row | Structure (SMILES) | Ki [1] | Ki [2] | Ki [3] | Ki [4] | Ki [5] | Ki [6] | Ki [7] | Ki [8] | Ki [9] | Ki [10] | Ki [11]
9 | N[C@@H](CCS(=O)(=O)O)C(=O)O (racemic) | > 10 µM | > 10 µM | > 10 µM | > 10 µM | > 10 µM | > 10 µM | > 10 µM | > 10 µM | > 10 µM | > 10 µM | > 10 µM
10 | N[C@@H]1CCSC1=O [D-homocysteine thiolactone] | > 10 µM | > 10 µM | > 10 µM | > 10 µM | > 10 µM | > 10 µM | > 10 µM | > 10 µM | > 10 µM | > 10 µM | > 10 µM
11 | N[C@@H](CCS(=O)O)C(=O)O [L-homocysteine sulfinic acid] | > 10 µM | > 10 µM | > 10 µM | > 10 µM | > 10 µM | > 10 µM | > 10 µM | > 10 µM | > 10 µM | > 10 µM | > 10 µM
12 | N[C@H]1CCSC1=O [NSC_134505] | > 10 µM | > 10 µM | > 10 µM | > 10 µM | > 10 µM | > 10 µM | > 10 µM | > 10 µM | > 10 µM | > 10 µM | > 10 µM
